Data taken from US12498382B2, “Biomarkers for vitiligo” (INCYTE CORPORATION, priority 2019, dated 2025).

Tested on: HaCaT cells
Assay: Normalized expression of target genes in HaCaT cells stimulated with TNFα and IFNγ in presence/absence of JAK inhibitors (QuantiGene Plex)
Assay type: cell-based, human
Details: for MFI, normalized expression of IYK2: gene IYK2; for MFI, normalized expression of IYK2 / MFI, normalized expression of TNF / MFI, normalized expression of VEGFA: HaCaT, normalized to HPRT1, mean ± standard error; for MFI, normalized expression of TNF: gene TNF; for MFI, normalized expression of VEGFA: gene VEGFA
Procedure: Transformed human keratinocyte (HaCaT) cells were purchased from AddexBio (Catalog #T0020001) and cultured as outlined in Example 5. […] After 48 hours, cell culture media was removed from 24 well plates and replaced with 250 uL of media containing serial diluted drug, then incubated for 15 minutes at 37° C./5% CO2. After drug incubation, 250 uL of combinatory stimulation containing Recombinant Human Interferon gamma (R&D Systems, Catalog #285-IF-100) and Recombinant Human Tumor Necrosis Factor alpha (R&D Systems, Catalog #210-TA-020) was added to plates. The final concentration of Recombinant Human Interferon gamma and Recombinant Human Tumor Necrosis Factor alpha was 25 ng/mL of each cytokine. Cytokine stimulation added to wells containing drug brought the final concentrations for each drug treatment to 25 nM, 50 nM, 100 nM, and 200 nM. Treated plates were mixed by gentle agitation for 30 seconds then incubated for 24 hours at 37° C./5% CO2. At the end of the 24 hour incubation media was immediately removed from each plate.
RNA was isolated from HaCaT cells using the QuantiGene Plex Assay reagents and protocols (Affymetrix, Catalog #QGP-232-M18042302) according to the manufacturer's guidelines. Cells were washed with 1×DPBS then lysed by incubation with provided QuantiGene lysis buffer for 30 minutes at 50-55° C. Cell lysates were incubated for 18-24 hours at 55° C. with capture beads and probe set designed to specifically hybridize to mRNA from targets of interest. Genes included housekeeping genes (e.g., HPRT1 and GAPDH) used for the normalization of the results. After the 18-24 hour incubation signal was amplified utilizing branched DNA methodologies, according to the manufacturer's procedures (Affymetrix, Catalog #QGP-232-M18042302). After hybridization and wash steps assay plate was read on the Luminex 200 and data were expressed as Net Median Fluorescence Intensity. Data was then normalized to the Net Median Fluorescence Intensity of the housekeeping gene HPRT1 (Table 14).

[1] = TNFα+IFNγ 25 ng/mL, Drug Conc 25 nM
[2] = TNFα+IFNγ 25 ng/mL, Drug Conc 50 nM
[3] = TNFα+IFNγ 25 ng/mL, Drug Conc 100 nM
[4] = TNFα+IFNγ 25 ng/mL, Drug Conc 200 nM
[5] = TNFα (25 ng/mL) and IFNγ (25 ng/mL), 1st (lowest, likely 25 nM) of 4 drug conc
[6] = TNFα (25 ng/mL) and IFNγ (25 ng/mL), 2nd (likely 50 nM) of 4 drug conc
[7] = TNFα (25 ng/mL) and IFNγ (25 ng/mL), 3rd (likely 100 nM) of 4 drug conc
[8] = TNFα (25 ng/mL) and IFNγ (25 ng/mL), 4th (highest, likely 200 nM) of 4 drug conc
[9] = drug without TNFα/IFNγ stimulation
[10] = no stimulation, Drug Conc 200 nM

## Cc1n[nH]c(C)c1-c1cnn(C2(CC#N)CN(c3cc(F)c(C(=O)N[C@@H](C)C(F)(F)F)cc3F)C2)c1 [Cpd C, 4-[3-(Cyanomethyl)-3-(3′,5′-dimethyl-1H,1′H-4,4′-bipyrazol-1-yl)azetidin-1-yl]-2,5-difluoro-N-[(1S)-2,2,2-trifluoro-1-methylethyl]benzamide]
[1]
  AREG normalized expression MFI: 703.71 ± 20.69
  CCL17 normalized expression MFI: 2.63 ± 0.4
  CCL18 normalized expression MFI: 2.11 ± 0.28
  FLG normalized expression MFI: 62.5 ± 8.63
  IL6 normalized expression MFI: 135.32 ± 3.36
  IL8 normalized expression MFI: 387.86 ± 17.53
  IL17A normalized expression MFI: 0.87 ± 0.14
  IL22 normalized expression MFI: 1.23 ± 0.21
  IL23A normalized expression MFI: 42.15 ± 1.61
  IL31 normalized expression MFI: 1.52 ± 0.37
  ILIA normalized expression MFI: 1370.52 ± 35.28
  JAK1 normalized expression MFI: 206.29 ± 6.84
  JAK2 normalized expression MFI: 114.94 ± 2.16
  JAK3 normalized expression MFI: 1.02 ± 0.19
  LOR normalized expression MFI: 23.22 ± 10.14
  S100A7 normalized expression MFI: 5.33 ± 1.21
  S100A12 normalized expression MFI: 1.31 ± 0.16
  SERPINB3 normalized expression MFI: 2.58 ± 0.41
  SERPINB4 normalized expression MFI: 3.53 ± 0.5
  STAT1 normalized expression MFI: 3103.89 ± 185.88
  STAT3 normalized expression MFI: 1557.84 ± 58.15
  STAT4 normalized expression MFI: 5.65 ± 0.44
  STAT5A normalized expression MFI: 22.82 ± 1.77
  STAT5B normalized expression MFI: 40.13 ± 1.97
  STAT6 normalized expression MFI: 1020.89 ± 23.57
[2]
  AREG normalized expression MFI: 719.73 ± 30.82
  CCL17 normalized expression MFI: 2.94 ± 0.35
  CCL18 normalized expression MFI: 2.13 ± 0.46
  FLG normalized expression MFI: 59.01 ± 8.69
  IL6 normalized expression MFI: 128.14 ± 6.83
  IL8 normalized expression MFI: 369.89 ± 17.71
  IL17A normalized expression MFI: 1.07 ± 0.16
  IL22 normalized expression MFI: 1.4 ± 0.19
  IL23A normalized expression MFI: 45.16 ± 2.92
  IL31 normalized expression MFI: 1.59 ± 0.33
  ILIA normalized expression MFI: 1308.7 ± 45.12
  JAK1 normalized expression MFI: 194.2 ± 8.24
  JAK2 normalized expression MFI: 107.16 ± 2.86
  JAK3 normalized expression MFI: 0.99 ± 0.16
  LOR normalized expression MFI: 32.81 ± 17.47
  S100A7 normalized expression MFI: 3.62 ± 0.78
  S100A12 normalized expression MFI: 1.18 ± 0.18
  SERPINB3 normalized expression MFI: 2.6 ± 0.69
  SERPINB4 normalized expression MFI: 4.24 ± 1.6
  STAT1 normalized expression MFI: 3049.62 ± 159.5
  STAT3 normalized expression MFI: 1519.61 ± 69.92
  STAT4 normalized expression MFI: 5.41 ± 0.33
  STAT5A normalized expression MFI: 20.71 ± 1.77
  STAT5B normalized expression MFI: 38.42 ± 2.28
  STAT6 normalized expression MFI: 982.62 ± 14.34
[3]
  AREG normalized expression MFI: 669.44 ± 30.13
  CCL17 normalized expression MFI: 3.06 ± 0.47
  CCL18 normalized expression MFI: 2.55 ± 0.87
  FLG normalized expression MFI: 65.04 ± 9.31
  IL6 normalized expression MFI: 112.13 ± 3.37
  IL8 normalized expression MFI: 361.05 ± 16.02
  IL17A normalized expression MFI: 0.89 ± 0.16
  IL22 normalized expression MFI: 1.19 ± 0.2
  IL23A normalized expression MFI: 48.11 ± 1.85
  IL31 normalized expression MFI: 1.49 ± 0.35
  ILIA normalized expression MFI: 1194.29 ± 12.27
  JAK1 normalized expression MFI: 193.28 ± 4.55
  JAK2 normalized expression MFI: 95.51 ± 3.13
  JAK3 normalized expression MFI: 0.99 ± 0.15
  LOR normalized expression MFI: 65.94 ± 37.89
  S100A7 normalized expression MFI: 4.3 ± 1.17
  S100A12 normalized expression MFI: 1.48 ± 0.32
  SERPINB3 normalized expression MFI: 3.63 ± 1.32
  SERPINB4 normalized expression MFI: 7.56 ± 3.67
  STAT1 normalized expression MFI: 3028.93 ± 125.19
  STAT3 normalized expression MFI: 1457.24 ± 54.48
  STAT4 normalized expression MFI: 5.32 ± 0.46
  STAT5A normalized expression MFI: 18.44 ± 1.85
  STAT5B normalized expression MFI: 36.56 ± 1.18
  STAT6 normalized expression MFI: 943.66 ± 25.99
[4]
  AREG normalized expression MFI: 681.68 ± 16.1
  CCL17 normalized expression MFI: 2.59 ± 0.34
  CCL18 normalized expression MFI: 1.74 ± 0.62
  FLG normalized expression MFI: 68.26 ± 8.04
  IL6 normalized expression MFI: 101.17 ± 2.91
  IL8 normalized expression MFI: 350.6 ± 11.85
  IL17A normalized expression MFI: 0.87 ± 0.13
  IL22 normalized expression MFI: 1.14 ± 0.25
  IL23A normalized expression MFI: 51.86 ± 2.95
  IL31 normalized expression MFI: 1.32 ± 0.34
  ILIA normalized expression MFI: 1151.31 ± 20.01
  JAK1 normalized expression MFI: 182.86 ± 4.07
  JAK2 normalized expression MFI: 91.17 ± 2.15
  JAK3 normalized expression MFI: 0.85 ± 0.15
  LOR normalized expression MFI: 37.49 ± 25.57
  S100A7 normalized expression MFI: 3.95 ± 1.14
  S100A12 normalized expression MFI: 1.06 ± 0.2
  SERPINB3 normalized expression MFI: 2.14 ± 0.67
  SERPINB4 normalized expression MFI: 3.54 ± 1.5
  STAT1 normalized expression MFI: 2977.26 ± 166.85
  STAT3 normalized expression MFI: 1483.1 ± 51.73
  STAT4 normalized expression MFI: 5.04 ± 0.36
  STAT5A normalized expression MFI: 17.64 ± 1.46
  STAT5B normalized expression MFI: 36.34 ± 1.97
  STAT6 normalized expression MFI: 966.51 ± 12.3
[5]
  MFI, normalized expression of IYK2: 283.97 ± 8.59
  MFI, normalized expression of TNF: 24.07 ± 1.43
  MFI, normalized expression of VEGFA: 570.27 ± 10.88
[6]
  MFI, normalized expression of IYK2: 273.68 ± 7.44
  MFI, normalized expression of TNF: 26.51 ± 1.84
  MFI, normalized expression of VEGFA: 531.53 ± 11.24
[7]
  MFI, normalized expression of IYK2: 266 ± 6.82
  MFI, normalized expression of TNF: 25.93 ± 1.59
  MFI, normalized expression of VEGFA: 514.04 ± 7.46
[8]
  MFI, normalized expression of IYK2: 263.49 ± 5.05
  MFI, normalized expression of TNF: 24.73 ± 1.29
  MFI, normalized expression of VEGFA: 492.12 ± 8.32
[9]
  MFI, normalized expression of IYK2: 205.57 ± 10.87
  MFI, normalized expression of TNF: 2.19 ± 0.56
  MFI, normalized expression of VEGFA: 199.88 ± 6.52
[10]
  AREG normalized expression MFI: 242.5 ± 16.14
  CCL17 normalized expression MFI: 0.99 ± 0.28
  CCL18 normalized expression MFI: 1.56 ± 0.73
  FLG normalized expression MFI: 211.48 ± 29.55
  IL6 normalized expression MFI: 4.97 ± 0.36
  IL8 normalized expression MFI: 55.48 ± 3.11
  IL17A normalized expression MFI: 0.51 ± 0.1
  IL22 normalized expression MFI: 0.71 ± 0.11
  IL23A normalized expression MFI: 9.42 ± 0.97
  IL31 normalized expression MFI: 0.79 ± 0.2
  ILIA normalized expression MFI: 88.72 ± 5.9
  JAK1 normalized expression MFI: 159.13 ± 7.08
  JAK2 normalized expression MFI: 23.67 ± 0.92
  JAK3 normalized expression MFI: 0.63 ± 0.1
  LOR normalized expression MFI: 19.48 ± 9.66
  S100A7 normalized expression MFI: 4.38 ± 1.15
  S100A12 normalized expression MFI: 0.72 ± 0.18
  SERPINB3 normalized expression MFI: 2.31 ± 0.77
  SERPINB4 normalized expression MFI: 3.37 ± 1.57
  STAT1 normalized expression MFI: 522.12 ± 14.19
  STAT3 normalized expression MFI: 728.97 ± 20.48
  STAT4 normalized expression MFI: 4.01 ± 0.45
  STAT5A normalized expression MFI: 1.44 ± 0.41
  STAT5B normalized expression MFI: 50.91 ± 4.38
  STAT6 normalized expression MFI: 723.56 ± 20.76
